The results in this text go back to ChEMBL document CHEMBL5653615 (J Biol Chem, 2013).

A word on the inhibition: it is the change of the read-out against control, counted positive when it falls.

The source made the active and inactive calls. No cut-off for these calls is given here.

The target of assay [1] is Serine/threonine-protein kinase PAK 6 (Homo sapiens) (UniProt Q9NQU5). Nature of the assay: Inhibition of human PAK6 at 18.6 nM by HotSpot assay relative to control.
Assay [2] addresses MAP/microtubule affinity-regulating kinase 3 (Homo sapiens) (UniProt P27448). Nature of the assay: Inhibition of human MARK3 at 18.6 nM by HotSpot assay relative to control.
Assay [3] concerns the target T1, Serine/threonine-protein kinase BRSK1 (Homo sapiens) (UniProt Q8TDC3).
T1 sequence (whole entry): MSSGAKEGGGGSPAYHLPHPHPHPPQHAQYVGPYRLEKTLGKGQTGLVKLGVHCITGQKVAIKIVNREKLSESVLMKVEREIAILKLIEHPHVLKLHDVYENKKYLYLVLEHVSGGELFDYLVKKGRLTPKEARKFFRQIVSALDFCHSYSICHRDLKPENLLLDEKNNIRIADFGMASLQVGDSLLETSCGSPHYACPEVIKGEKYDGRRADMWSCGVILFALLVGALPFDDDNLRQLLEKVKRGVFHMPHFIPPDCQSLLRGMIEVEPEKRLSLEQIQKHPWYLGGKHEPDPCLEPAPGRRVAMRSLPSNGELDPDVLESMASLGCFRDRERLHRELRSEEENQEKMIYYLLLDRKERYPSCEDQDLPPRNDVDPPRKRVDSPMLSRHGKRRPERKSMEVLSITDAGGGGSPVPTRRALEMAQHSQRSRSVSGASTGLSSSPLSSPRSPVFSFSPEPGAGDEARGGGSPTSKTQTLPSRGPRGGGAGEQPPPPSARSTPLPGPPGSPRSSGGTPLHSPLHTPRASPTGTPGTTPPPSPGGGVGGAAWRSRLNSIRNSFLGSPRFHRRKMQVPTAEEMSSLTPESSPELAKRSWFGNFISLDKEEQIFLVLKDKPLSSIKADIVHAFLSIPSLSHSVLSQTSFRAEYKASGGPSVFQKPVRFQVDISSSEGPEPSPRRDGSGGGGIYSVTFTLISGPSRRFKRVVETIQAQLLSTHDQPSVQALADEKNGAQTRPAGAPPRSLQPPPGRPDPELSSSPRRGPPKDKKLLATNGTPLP
Nature of the assay: Inhibition of human BRSK1 at 18.6 nM by HotSpot assay relative to control.

A short description of assay [4]: Inhibition of tri-phosphorylated human Insulin receptor (978 to 1283 residues) C981S mutant kinase domain expressed in baculovirus infected Sf9 cells incubated for 1 hr by [gamma-33P]ATP assay.
Assay [5] deals with T2, Tyrosine-protein kinase JAK3 (Homo sapiens) (UniProt P52333).
T2 sequence (whole entry): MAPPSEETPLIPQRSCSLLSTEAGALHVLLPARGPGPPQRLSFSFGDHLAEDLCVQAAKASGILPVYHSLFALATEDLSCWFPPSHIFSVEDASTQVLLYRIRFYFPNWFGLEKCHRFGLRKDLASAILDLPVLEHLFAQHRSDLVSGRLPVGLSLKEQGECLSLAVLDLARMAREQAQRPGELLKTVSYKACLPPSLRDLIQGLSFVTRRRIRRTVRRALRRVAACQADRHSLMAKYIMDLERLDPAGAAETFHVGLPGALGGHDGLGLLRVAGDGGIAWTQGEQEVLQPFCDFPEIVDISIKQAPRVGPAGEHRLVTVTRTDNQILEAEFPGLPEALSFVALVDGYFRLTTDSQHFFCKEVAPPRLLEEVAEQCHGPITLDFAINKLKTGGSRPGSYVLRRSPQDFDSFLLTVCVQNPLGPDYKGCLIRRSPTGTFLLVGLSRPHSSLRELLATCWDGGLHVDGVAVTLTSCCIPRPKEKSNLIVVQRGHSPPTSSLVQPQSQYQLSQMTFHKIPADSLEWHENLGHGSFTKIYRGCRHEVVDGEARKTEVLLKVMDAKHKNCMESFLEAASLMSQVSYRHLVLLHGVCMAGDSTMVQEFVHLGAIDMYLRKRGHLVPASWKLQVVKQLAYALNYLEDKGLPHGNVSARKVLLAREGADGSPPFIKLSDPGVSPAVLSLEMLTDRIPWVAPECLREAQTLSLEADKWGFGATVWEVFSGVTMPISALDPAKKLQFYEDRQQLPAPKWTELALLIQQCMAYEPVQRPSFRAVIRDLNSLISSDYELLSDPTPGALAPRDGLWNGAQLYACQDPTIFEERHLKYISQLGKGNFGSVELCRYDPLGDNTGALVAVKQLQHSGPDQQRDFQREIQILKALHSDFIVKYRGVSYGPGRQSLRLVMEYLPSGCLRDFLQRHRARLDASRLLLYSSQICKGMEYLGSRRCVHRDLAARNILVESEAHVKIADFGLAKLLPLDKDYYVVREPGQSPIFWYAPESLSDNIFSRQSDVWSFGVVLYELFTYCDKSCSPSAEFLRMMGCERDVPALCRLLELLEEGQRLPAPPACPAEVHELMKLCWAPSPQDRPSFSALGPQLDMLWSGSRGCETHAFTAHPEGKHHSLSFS
Nature of the assay: Inhibition of human JAK3 at 1.82 nM by HotSpot assay relative to control.

Assay [6] deals with Tyrosine-protein kinase SYK (Homo sapiens) (UniProt P43405). Nature of the assay: Inhibition of human SYK at 1.82 nM by HotSpot assay relative to control.
The target of assay [7] is T3, Dual specificity mitogen-activated protein kinase kinase 6 (Homo sapiens) (UniProt P52564).
T3 sequence (whole entry): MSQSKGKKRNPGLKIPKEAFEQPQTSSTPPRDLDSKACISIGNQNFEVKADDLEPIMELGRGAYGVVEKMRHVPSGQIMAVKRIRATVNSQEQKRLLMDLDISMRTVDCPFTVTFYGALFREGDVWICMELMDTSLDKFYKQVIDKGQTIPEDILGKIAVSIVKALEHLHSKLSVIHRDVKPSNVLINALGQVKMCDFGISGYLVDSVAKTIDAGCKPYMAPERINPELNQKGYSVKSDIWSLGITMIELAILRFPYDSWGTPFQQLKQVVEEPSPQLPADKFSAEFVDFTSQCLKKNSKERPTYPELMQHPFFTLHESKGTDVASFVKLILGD
Nature of the assay: Inhibition of human MKK6 at 1.82 nM by HotSpot assay relative to control.

MAP/microtubule affinity-regulating kinase 3 (Homo sapiens), sequence (P27448 whole entry, looked up): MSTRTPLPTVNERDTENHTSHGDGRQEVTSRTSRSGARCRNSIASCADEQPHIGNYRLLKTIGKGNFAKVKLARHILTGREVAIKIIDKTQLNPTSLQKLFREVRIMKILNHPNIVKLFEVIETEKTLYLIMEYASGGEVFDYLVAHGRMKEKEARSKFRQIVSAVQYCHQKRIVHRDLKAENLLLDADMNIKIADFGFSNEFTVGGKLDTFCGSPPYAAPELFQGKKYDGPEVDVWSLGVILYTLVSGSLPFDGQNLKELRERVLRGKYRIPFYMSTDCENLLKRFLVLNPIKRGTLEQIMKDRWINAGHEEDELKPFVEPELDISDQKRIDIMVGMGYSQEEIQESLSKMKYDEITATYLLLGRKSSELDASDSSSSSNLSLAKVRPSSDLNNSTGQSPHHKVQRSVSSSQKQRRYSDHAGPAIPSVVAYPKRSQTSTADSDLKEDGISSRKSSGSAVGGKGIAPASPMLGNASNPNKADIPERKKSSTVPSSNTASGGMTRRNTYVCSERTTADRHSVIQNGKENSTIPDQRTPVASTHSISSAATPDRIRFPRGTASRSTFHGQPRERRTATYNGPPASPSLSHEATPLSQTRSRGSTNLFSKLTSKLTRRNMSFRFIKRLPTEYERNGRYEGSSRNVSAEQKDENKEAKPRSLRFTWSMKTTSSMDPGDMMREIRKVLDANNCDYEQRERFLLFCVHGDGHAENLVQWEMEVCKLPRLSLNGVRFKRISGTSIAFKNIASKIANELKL
Serine/threonine-protein kinase PAK 6 (Homo sapiens), sequence (Q9NQU5 whole entry, looked up): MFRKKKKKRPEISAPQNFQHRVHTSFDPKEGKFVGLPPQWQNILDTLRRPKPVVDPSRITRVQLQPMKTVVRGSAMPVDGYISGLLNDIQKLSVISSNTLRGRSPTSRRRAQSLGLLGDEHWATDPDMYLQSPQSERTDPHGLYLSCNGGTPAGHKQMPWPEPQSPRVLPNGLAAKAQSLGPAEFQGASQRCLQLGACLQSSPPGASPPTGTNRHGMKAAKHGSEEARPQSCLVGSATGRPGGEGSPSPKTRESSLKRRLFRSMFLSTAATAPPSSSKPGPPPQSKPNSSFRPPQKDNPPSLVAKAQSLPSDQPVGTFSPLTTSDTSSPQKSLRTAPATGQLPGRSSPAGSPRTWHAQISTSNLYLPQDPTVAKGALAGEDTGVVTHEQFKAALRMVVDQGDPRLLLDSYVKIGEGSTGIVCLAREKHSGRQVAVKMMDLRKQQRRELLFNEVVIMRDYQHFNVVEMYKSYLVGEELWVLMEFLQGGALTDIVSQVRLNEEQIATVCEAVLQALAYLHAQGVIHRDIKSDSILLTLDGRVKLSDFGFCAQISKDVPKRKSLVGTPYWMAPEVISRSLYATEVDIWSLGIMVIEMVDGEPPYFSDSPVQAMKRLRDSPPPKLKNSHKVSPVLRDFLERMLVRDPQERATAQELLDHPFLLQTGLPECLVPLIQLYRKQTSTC

Take `C[C@]1(O)C[C@@H](c2nc(-c3ccc4ccc(-c5ccccc5)nc4c3)c3c(N)nccn32)C1`: the inhibition is -8.39% in assay [1], 2.43% in assay [2] and -2.86% in assay [3].

Regarding `Oc1n[nH]c2nnc(-c3c(-c4ccccc4)nn4ccccc34)cc12`, the inhibition entry in assay [4] is “inactive”.

Consider `C[C@@]1(C(=O)Nc2ccc(F)nc2)CCCN1c1nc(Nc2cc(C3CC3)n[nH]2)c2cccn2n1`, for which the figures for the inhibition in assay [5], in assay [6] and in assay [7] were -1.99%, -1.25% and 3.26%, respectively.
